Measurements published in patent US7601721B2, “Substituted heterocyclic compounds” (Gilead Palo Alto, Inc., priority 2004, dated 2009).
pIC50: −log10 of the molar value.

test system: Palmitoyl CoA oxidation in rat heart mitochondria; assay: Palmitoyl CoA oxidation in isolated rat heart mitochondria (Mitochondrial Assays); format: biochemical; settings: 1-C14 palmitoyl CoA, 15 min at 30° C., read-out: Palm CoA inhibition IC50
Protocol: Rat heart mitochondria are isolated by the method of Nedergard and Cannon (Methods in Enzymol. 55, 3, 1979).
Palmitoyl CoA oxidation—The Palmityl CoA oxidation is carried out in a total volume of 100 micro liters containing the following agents: 110 mM KCl, 33 mM Tris buffer at pH 8, 2 mM KPi, 2 mM MgCl2, 0.1 mM EDTA, 14.7 microM defatted BSA, 0.5 mM malic acid, 13 mM carnitine, 1 mM ADP, 52 micrograms of mitochondrial protein, and 16 microM 1-C14 palmitoyl CoA (Sp. Activity 60 mCi/mmole; 20 microCi/ml, using 5 microliters per assay). The compounds of this invention are added in a DMSO solution at the following concentrations: 100 micro molar, 30 micro molar, and 3 micro molar. In each assay, a DMSO control is used. After 15 min at 30° C., the enzymatic reaction is centrifuged (20,000 g for 1 min), and 70 microliters of the supernatant is added to an activated reverse phase silicic acid column (approximately 0.5 ml of silicic acid). The column is eluted with 2 ml of water, and 0.5 ml of the eluent is used for scintillation counting to determine the amount of C^14 trapped as C^14 bicarbonate ion.

pIC50	Molecule
5.54	Cc1nc2cc(OCC(CN3CCN(CC(=O)Nc4cccc(-c5ccccc5)c4)CC3)NS(C)(=O)=O)ccc2s1 (stereo not shown) [2-(4-{3-(2-methylbenzothiazol-5-yloxy)-2-[(methylsulfonyl)amino]propyl}piperazinyl)-N-(3-phenylphenyl)acetamide]
4.90	CC(=O)NC(COc1ccc2sc(C)nc2c1)CN1CCN(CC(=O)Nc2cccc(-c3ccccc3)c2)CC1 (stereo not shown) [2-{4-[2-(acetylamino)-3-(2-methylbenzothiazol-5-yloxy)propyl]piperazinyl}-N-(3-phenylphenyl)acetamide]
5.09	CC(=O)NC(COc1ccc2sc(C)nc2c1)CN1CCN(C(=O)Nc2ccc3c(c2)Cc2ccccc2-3)CC1 (stereo not shown) [N-{2-[4-(N-fluoren-2-ylcarbamoyl)piperazinyl]-1-[(2-methylbenzothiazol-5-yloxy)methyl]ethyl}acetamide]
5.52	N-fluoren-2-yl(4-{3-(2-methylbenzothiazol-5-yloxy)-2-[(methylsulfonyl)amino]propyl}-piperazinyl)carboxamide
